From publication PMC4961458 (eLife, 2016)
Read-outs that look alike come from different tables or passages of the source.

Columns and labels:
[1] = system: Doxycycline-inducible MCF7 cells (Vector); assay: Cell viability, doxycycline-inducible MCF7 cells, vector control; assay type: cell-based; details: Homo sapiens, MCF7, 168 h, 7 days; for IC50: 0.1 nM E2, 10 ng/ml doxycycline; for EC50: estrogen-depleted medium, 10 ng/ml doxycycline, read-out: Cell viability EC50, Vector -E2
[2] = system: MCF7 tumors; assay: MCF7 xenograft efficacy; assay type: in vivo, mice; details: […]60 day E2 pellets; GDC-0810 100 mg/kg/day p.o.; fulvestrant clinically relevant dose (50 then 25 mg/kg s.c.) and 200 mg/kg 3 times per week; 28 days
[3] = biological target: T1, GR (Homo sapiens, UniProt P04150); assay: GR competitive radioligand binding assay
T1 sequence (P04150 1-777): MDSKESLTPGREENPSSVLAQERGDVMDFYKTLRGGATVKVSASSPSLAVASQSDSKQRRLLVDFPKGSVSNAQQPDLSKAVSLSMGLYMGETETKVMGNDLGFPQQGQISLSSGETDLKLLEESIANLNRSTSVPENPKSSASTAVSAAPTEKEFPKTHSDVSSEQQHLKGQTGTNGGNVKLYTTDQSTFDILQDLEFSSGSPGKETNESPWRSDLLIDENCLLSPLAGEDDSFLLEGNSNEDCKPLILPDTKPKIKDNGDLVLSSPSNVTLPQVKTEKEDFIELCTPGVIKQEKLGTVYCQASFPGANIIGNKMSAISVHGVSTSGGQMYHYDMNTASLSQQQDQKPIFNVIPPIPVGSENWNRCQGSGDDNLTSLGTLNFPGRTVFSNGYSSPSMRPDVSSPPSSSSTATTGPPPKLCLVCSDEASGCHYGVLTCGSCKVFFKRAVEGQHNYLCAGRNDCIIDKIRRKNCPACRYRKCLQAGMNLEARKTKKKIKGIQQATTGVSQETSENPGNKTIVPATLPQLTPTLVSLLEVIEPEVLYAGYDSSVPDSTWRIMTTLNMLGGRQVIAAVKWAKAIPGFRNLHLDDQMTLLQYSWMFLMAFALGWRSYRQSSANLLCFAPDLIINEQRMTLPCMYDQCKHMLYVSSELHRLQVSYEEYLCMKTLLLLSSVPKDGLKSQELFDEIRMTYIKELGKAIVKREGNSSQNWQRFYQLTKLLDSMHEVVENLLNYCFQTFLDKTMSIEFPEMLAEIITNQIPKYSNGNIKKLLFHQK
Method: Reactions were conducted in 96-well plates in TEGM (10 mM Tris-HCl pH 7.2, 1 mM EDTA, 10% glycerol, 1 mM β-mercaptoethanol, 10 mM sodium molybdate). […] All reactions were set up in duplicates and incubated at 4°C overnight. Receptor-bound ^3H-DEX was isolated by ultrafiltration using a Unifilter-96 GF/C filter plate (Perkin Elmer), eluted in 30 µL Microscint-20 and quantified using a scintillation counter (Top Count).

[4] = biological target: T1, GR; assay: GR transcriptional reporter assay, agonist mode (CV1 cells); assay type: cell-based; details: CV-1; % of maximal dexamethasone-stimulated activity
Method: CV1 cells were maintained in MEM supplemented with 10% FBS. Transcriptional assays were performed by seeding 12 mL of cells at a density of 250,000 cells/mL into a T-75 cell culture flask in MEM supplemented with 5% charcoal-stripped serum and allowed to attach overnight. Cells were transiently transfected using FuGENE 6 (Roche Applied Science). […] Transfected cells were incubated overnight then split into four 96-well tissue culture plates and incubated for 4 hr followed by compound addition. […] The final agonist concentration used in the antagonist assays was 10 nM.

[5] = biological target: T2, MR (Homo sapiens, UniProt P08235); assay: MR transcriptional reporter assay, agonist mode (HEPG2 cells); assay type: cell-based; details: % of maximal aldosterone-stimulated activity
T2 construct: expressed in transfected cells; host or cells: HEPG2
T2 sequence (P08235 1-984): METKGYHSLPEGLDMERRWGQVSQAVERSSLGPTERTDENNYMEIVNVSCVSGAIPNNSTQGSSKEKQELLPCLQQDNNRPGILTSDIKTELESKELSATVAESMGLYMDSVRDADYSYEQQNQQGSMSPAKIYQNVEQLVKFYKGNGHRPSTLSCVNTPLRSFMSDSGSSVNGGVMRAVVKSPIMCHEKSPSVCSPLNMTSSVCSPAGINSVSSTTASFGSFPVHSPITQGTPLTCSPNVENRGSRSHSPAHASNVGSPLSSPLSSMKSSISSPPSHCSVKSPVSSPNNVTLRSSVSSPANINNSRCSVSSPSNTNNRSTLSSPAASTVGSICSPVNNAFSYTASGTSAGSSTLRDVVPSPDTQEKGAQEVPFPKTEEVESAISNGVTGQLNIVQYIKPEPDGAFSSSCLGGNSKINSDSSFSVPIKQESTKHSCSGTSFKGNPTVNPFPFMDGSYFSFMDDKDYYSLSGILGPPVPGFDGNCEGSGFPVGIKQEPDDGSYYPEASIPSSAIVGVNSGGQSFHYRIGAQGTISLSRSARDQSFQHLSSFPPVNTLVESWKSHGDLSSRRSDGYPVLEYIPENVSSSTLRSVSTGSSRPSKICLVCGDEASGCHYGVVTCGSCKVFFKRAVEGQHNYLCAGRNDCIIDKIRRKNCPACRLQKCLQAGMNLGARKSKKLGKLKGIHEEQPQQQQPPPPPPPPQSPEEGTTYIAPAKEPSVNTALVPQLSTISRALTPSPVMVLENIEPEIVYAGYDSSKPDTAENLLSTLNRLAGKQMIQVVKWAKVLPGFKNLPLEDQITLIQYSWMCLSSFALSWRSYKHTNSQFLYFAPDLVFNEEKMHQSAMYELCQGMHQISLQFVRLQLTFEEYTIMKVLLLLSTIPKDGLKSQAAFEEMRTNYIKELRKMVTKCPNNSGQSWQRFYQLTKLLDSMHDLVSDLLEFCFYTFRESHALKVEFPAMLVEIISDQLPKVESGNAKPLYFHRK
Method: Transcriptional assays were performed by seeding 100 μL of cells at a density of 250,000 cells/mL into 96-well cell culture plates in RPMI 1640 supplemented with 5% charcoal-stripped serum and allowed to attach overnight. […] Triplicate transfections were performed using 418 ng reporter vector (2X PRE-Luciferase for PR-A and PR-B, MMTV-Luciferase for MR), 50 ng CMVpRL (normalization vector), 10 ng NHR expression vector (CMX-PR-A, pCDNA-PR-B or 6R-MR), and 0.7 μL lipofectin. […] The final agonist concentration used in the antagonist assays was 1 nM. Following 24 hr incubation, the medium was removed and the cells were lysed in 40 μL of lysis buffer (25 mM Tris Phosphate, 2 mM CDTA, 10% Glycerol, 0.5% Triton X-100, 2 mM DTT). Firefly luciferase activity was measured immediately following the addition of 40 μL luciferase buffer (20 mM tricine, 0.1 mM EDTA, 1.07 mM (MgCO3)4 Mg(OH)2· 5H2O, 2.67 mM MgSO4, 33.3 mM DTT, 270 μM Coenzyme A, 470 μM luciferin, 530 μM ATP).

SMILES | IC50 [1] [nM] | EC50 [1] [nM] | Tumor growth response, MCF7 xenograft [2] | IC50 [3] [nM] | Emax [4] [%] | Emax [5] [%] | IC50 ([3]; 3.0 nM 3H-dexamethasone, read-out: GR IC50) [nM]
C[C@]12CC[C@@H]3c4ccc(O)cc4C[C@@H](CCCCCCCCC[S+]([O-])CCCC(F)(F)C(F)(F)F)[C@H]3[C@@H]1CC[C@@H]2O (stereo partly drawn) [Fulvestrant] | 7.2 | 0.8 | only modest tumor growth inhibition | 817 | – | – | –
CC/C(=C(/c1ccc(/C=C/C(=O)O)cc1)c1ccc2[nH]ncc2c1)c1ccc(F)cc1Cl [GDC-0810] | 15 | 1 | caused tumor regressions | – | 1.78 ± 1.21 | 0.09 ± 0.16 | –
CC/C(=C(\c1ccc(O)cc1)c1ccc(OCCN(C)C)cc1)c1ccccc1 [4-OH Tam, 4-hydroxytamoxifen] | – | – | – | – | 1.99 ± 1.52 | 0 | > 1800
